{"source": "patent US20050226878A1", "about": "“Therapeutic combinations and methods including IRM compounds” (3M Innovative Properties Company, priority 2003, published 2005)", "key": {"[1]": {"test_system": "Peripheral blood mononuclear cells (PBMCs)", "experiment": "Example 1: TNF-α secreted by PBMCs treated with IRM1 after dexamethasone pre-incubation (ELISA)", "format": "cell-based, human", "conditions": "IRM1 1 μM, no dexamethasone, 24 hours", "description": "(§1) Whole blood from healthy human donors was collected by venipuncture into EDTA vacutainer tubes (Becton Dickinson Labware, Lincoln Park, N.J.). Peripheral blood mononuclear cells (PBMCs) are separated from whole blood by density gradient centrifugation using HISTOPAQUE-1077 (Sigma-Aldrich Chemical Co., St. Louis, Mo.). The PBMCs are washed twice with Hank's Balanced Salts Solution (Celox Laboratories, Inc., Hopkins, Minn.) and then are suspended at 3-4×10^6 cells/mL in RPMI complete culture medium (Celox Laboratories, Inc., Hopkins, Minn.). The PBMC suspension was added to 48 well flat bottom sterile tissue culture plates (Becton Dickinson Labware, Lincoln Park, N.J.) containing an equal volume of RPMI complete media containing dexamethasone (Sigma Chemical Co., St. Louis, Mo.) at one of the dexamethasone concentrations indicated in Table 2. After one hour, IRMI was added to a final concentration of 1 μM, and then incubated at 37° C. for an additional 24 hours. Following incubation the cells were centrifuged for 5-10 minutes at 1000 rpm (˜200×g) at 4° C. […] The samples were analyzed for IFN-α and TNF-α secreted into the culture medium. The concentration of secreted IFN-α was determined by ELISA using a Human Multi-Species kit (PBL Biomedical Laboratories, Piscataway, N.J.). […]"}, "[2]": {"test_system": "Peripheral blood mononuclear cells (PBMCs)", "experiment": "Example 1: IFN-α secreted by PBMCs treated with IRM1 after dexamethasone pre-incubation (ELISA)", "format": "cell-based, human", "conditions": "IRM1 1 μM, no dexamethasone, 24 hours", "description": "as §1"}, "Human PBMCs [3]": {"test_system": "Human PBMCs", "experiment": "Example 2: TNF-α secreted by PBMCs treated with IRM compound or LPS after dexamethasone pre-incubation (ELISA)", "format": "cell-based", "conditions": "IRM2 1.0 μg/mL, LPS 0.1 μg/mL, 24 hours", "protocol": "(§2) Human PBMCs were collected and prepared as described in Example 1. After one hour, the cells were treated with IRM compound, LPS, or left unstimulated, and then incubated for an additional 24 hours.\nSecreted TNF-α was assayed by ELISA (Biosource International, Inc., Camarillo, Calif.)."}, "male CFW mice": {"test_system": "male CFW mice", "experiment": "Example 3: serum TNF in mice challenged with IRM2 after oral dexamethasone (ELISA)", "format": "in vivo", "conditions": "IRM2 10 mg/kg, no dexamethasone", "protocol": "A dexamethasone solution was prepared in saline and administered orally (3 mg/kg) to male CFW mice (Charles River Laboratories, Inc., Wilmington, Mass.) once or once daily for five days. Thirty minutes after the final administration of dexamethasone, the mice were challenged with a solution of IRM2 prepared in saline to provide a dose of 10 mg/kg. The mice were bled either 2 hours or 3 hours after being challenged with IRM2. Serum samples were analyzed by for TNF by ELISA as described in Example 1."}, "Human PBMCs [4]": {"test_system": "Human PBMCs", "experiment": "Example 4: TNF-α secreted by PBMCs with or without anti-TNF monoclonal antibody (ELISA)", "format": "cell-based", "conditions": "IRM2 1.0 μg/mL, LPS 0.1 μg/mL, 24 hours", "protocol": "as §2, with “1. The cells were incubated with an anti-TNF monoclonal antibody (mouse anti-human TNF, Promega Corp., Madison, Wis.).” for “1.”\n(§3) Secreted TNF-α and IL-6 were assayed by ELISA (Biosource International, Inc., Camarillo, Calif.). Results are expressed in pg/mL for each cytokine."}, "Human PBMCs [5]": {"test_system": "Human PBMCs", "experiment": "Example 4: IL-6 secreted by PBMCs with or without anti-TNF monoclonal antibody (ELISA)", "format": "cell-based", "conditions": "IRM2 1.0 μg/mL, LPS 0.1 μg/mL, 24 hours", "protocol": "as §2, with “1. The cells were incubated with an anti-TNF monoclonal antibody (mouse anti-human TNF, Promega Corp., Madison, Wis.).” for “1.”\nas §3"}, "Human PBMCs [6]": {"test_system": "Human PBMCs", "experiment": "Example 4: IFN secreted by PBMCs with or without anti-TNF monoclonal antibody (virus neutralization bioassay, A549 cells/encephalomyocarditis virus)", "format": "cell-based", "conditions": "IRM2 1.0 μg/mL, LPS 0.1 μg/mL, 24 hours", "protocol": "as §2, with “1. The cells were incubated with an anti-TNF monoclonal antibody (mouse anti-human TNF, Promega Corp., Madison, Wis.).” for “1.”\nSecreted IFN was assayed using a virus neutralization bioassay using A549 human lung carcinoma cells challenged with encephalomyocarditis. The details of the bioassay method have been described by G. L. Brennan and L. H. Kronenberg in “Automated Bioassay of Interferons in Micro-test Plates”, Biotechniques, June/July, 78, 1983, incorporated herein by reference. Briefly stated the method is as follows: A549 cells are incubated with dilutions of samples or a standard interferon at 37° C. for 24 hours. The incubated cells are then infected with an inoculum of encephalomyocarditis virus. The infected cells are incubated for an additional 24 hours at 37° C. before evaluating for viral cytopathic effect. The viral cytopathic effect is quantified by staining with crystal violet followed by visual scoring of the plates. Results are expressed as alpha reference units/mL based on the value obtained for NIH Human Leukocyte IFN standard."}, "PBMCs [7]": {"test_system": "PBMCs", "experiment": "Example 6: IFN-α induction by PBMCs with anti-TNF antibody or isotype control (ELISA, FIG. 1)", "format": "cell-based, human", "conditions": "for IFN-α produced in combination with anti-TNF antibody versus IRM alone: IRM 3 μM + 1 μg/mL anti-TNF antibody, FIG. 1B versus FIG. 1A", "protocol": "(§4) Whole blood from healthy human donors was collected by venipuncture into EDTA vacutainer tubes (Becton Dickinson Labware, Lincoln Park, N.J.). […] The PBMCs are washed twice with Phosphate Buffered Saline (PBS, Biosource, Camarillo, Calif.) and then are suspended at 5×10^6 cells/mL in RPMI complete culture medium (Celox Laboratories, Inc., Hopkins, Minn.). One milliliter of the PBMC suspension and 1.5 milliliter of RPMI complete media were added to each well of a 24 well flat bottom sterile tissue culture plate (Becton Dickinson Labware, Lincoln Park, N.J.) for a final PBMC concentration of 2×10^6 cells/mL.\n(§5) Following incubation the cells were centrifuged for 5-10 minutes at 1000 rpm (˜200×g) at 4° C. The cell-free culture supernatant was removed with a sterile polypropylene pipette and transferred to sterile polypropylene tubes. Samples were maintained at −70° C. until analysis.\n(§6) The samples were analyzed for IFN-α, TNF-α and IFN-γ secreted into the culture medium. The concentration of secreted IFN-α was determined by ELISA using a Human Multi-Species kit (PBL Biomedical Laboratories, Piscataway, N.J.). Secreted TNF-α and IFN-γ were analyzed using a human-specific TNF-α BV™ or IFN-γ BV™ immunoassay (BioVeris Corp., Gaithersburg, Md.)."}, "PBMCs [8]": {"test_system": "PBMCs", "experiment": "Example 6: TNF-α induction by PBMCs with anti-TNF antibody or isotype control (immunoassay, FIG. 2)", "format": "cell-based, human", "conditions": "for TNF-α induced in combination with anti-TNF antibody: IRM 3 μM + 1 μg/mL anti-TNF antibody, FIG. 2B; for TNF-α induction: IRM 3 μM alone (isotype control antibody), FIG. 2A", "protocol": "as §4, §5, §6"}, "[9]": {"conditions": "+Ab (anti-TNF monoclonal antibody)"}}}
{"compound": "CCOCc1nc2c(N)nc3ccccc3c2n1CC(C)(C)O", "note": "[IRM1, 4-amino-α,α-dimethyl-2-ethoxymethyl-1H-imidazo[4,5-c]quinolin-1-ethanol]", "values": [{"measurement": "TNF", "setting": "[1]", "value": 3000, "unit": "pg/mL"}, {"measurement": "IFN", "setting": "[2]", "value": 959, "unit": "U/mL"}]}
{"compound": "Cc1nc2c(N)nc3ccccc3c2n1CC(C)(C)O", "note": "[IRM2, 4-amino-α,α,2-trimethyl-1H-imidazo[4,5-c]quinoline-1-ethanol]", "values": [{"measurement": "Secreted TNF-α", "setting": "Human PBMCs [3]; 0 μM Dex.", "value": 1570, "unit": "pg/mL"}, {"measurement": "Secreted TNF-α", "setting": "Human PBMCs [3]; 0.01 μM Dex.", "value": 775, "unit": "pg/mL"}, {"measurement": "Secreted TNF-α", "setting": "Human PBMCs [3]; 0.1 μM Dex.", "value": 224, "unit": "pg/mL"}, {"measurement": "Secreted TNF-α", "setting": "Human PBMCs [3]; 1.0 μM Dex.", "value": 191, "unit": "pg/mL"}, {"measurement": "Serum TNF", "setting": "male CFW mice; 2 hrs. post-challenge", "value": 2983, "unit": "pg/mL"}, {"measurement": "Serum TNF", "setting": "male CFW mice; 3 hrs. post-challenge", "value": 487, "unit": "pg/mL"}, {"measurement": "TNF", "setting": "Human PBMCs [4]; [9]", "value": 61, "unit": "pg/mL"}, {"measurement": "TNF", "setting": "Human PBMCs [4]; No Ab", "value": 1340, "unit": "pg/mL"}, {"measurement": "IL-6", "setting": "Human PBMCs [5]; [9]", "value": 24189, "unit": "pg/mL"}, {"measurement": "IL-6", "setting": "Human PBMCs [5]; No Ab", "value": 20137, "unit": "pg/mL"}, {"measurement": "IFN", "setting": "Human PBMCs [6]; [9]", "value": 290, "unit": "U/mL"}, {"measurement": "IFN", "setting": "Human PBMCs [6]; No Ab", "value": 460, "unit": "U/mL"}]}
{"compound": "CCOCc1nc2c(N)nc3c(c2n1CC(C)(C)O)CCCC3", "note": "[IRM5, 4-amino-2-(ethoxymethyl)-α,α-dimethyl-6,7,8,9-tetrahydro-1H-imidazo[4,5-c]quinoline-1-ethanol]", "values": [{"measurement": "IFN-α produced in combination with anti-TNF antibody versus IRM alone", "setting": "PBMCs [7]", "value": "increased levels"}, {"measurement": "TNF-α induced in combination with anti-TNF antibody", "setting": "PBMCs [8]", "value": "substantially limited"}, {"measurement": "TNF-α induction", "setting": "PBMCs [8]", "value": "significant levels"}]}
{"compound": "CCc1nc2c(N)nc3ccccc3c2n1CCCCNS(C)(=O)=O", "note": "[IRM8, N-[4-(4-amino-2-ethyl-1H-imidazo[4,5-c]quinolin-1-yl)butyl]methanesulfonamide]", "values": [{"measurement": "IFN-α produced in combination with anti-TNF antibody versus IRM alone", "setting": "PBMCs [7]", "value": "increased levels"}, {"measurement": "IFN-α induction", "setting": "PBMCs [7]; IRM 3 μM alone (isotype control antibody), FIG. 1A, compared to other IRM compounds", "value": "relatively potent inducer"}, {"measurement": "TNF-α induction", "setting": "PBMCs [8]", "value": "relatively poor inducer"}]}
{"compound": "COCCc1nc2c(N)nc3ccccc3c2n1CCOCCNC(=O)N1CCOCC1", "note": "[IRM12, N-(2-{2-[4-amino-2-(2-methoxyethyl)-1H-imidazo[4,5-c]quinolin-1-yl]ethoxy}ethyl)morpholine-4-carboxamide]", "values": [{"measurement": "IFN-α produced in combination with anti-TNF antibody versus IRM alone", "setting": "PBMCs [7]", "value": "increased levels"}, {"measurement": "TNF-α induced in combination with anti-TNF antibody", "setting": "PBMCs [8]", "value": "substantially limited"}, {"measurement": "TNF-α induction", "setting": "PBMCs [8]", "value": "significant levels"}]}
